Measurements published in a compilation of properties of binary mixtures (doi:10.1021/acs.jced.2c00024).

Experiment: xn = mol fraction of the nth substance listed
Details: 101 kPa, x2 = 0

O=C1CCCO1 + [S-]C#N.COCCN1C=[N+](C=C1)C
Details	viscosity [mPa·s]
288.15 K	2.02
293.15 K	1.86
298.15 K	1.72
303.15 K	1.59
308.15 K	1.48
318.15 K	1.29
323.15 K	1.21
328.15 K	1.14
333.15 K	1.08
338.15 K	1.02
343.15 K	0.97
